This experiment relates to β-catenin-TCF-mediated reporter transcription activity in Colo 205 cells. Put plainly: Colo 205 reporter assay (TCF/LEF luciferase). The class given is cell-based. The following applies: Colo 205 TCF/LEF luciferase reporter, read-out: TCF reporter Colo205 IC50. The procedure, abridged: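 Luciferase signal from a TCF/LEF-driven reporter, stably integrated in Colo 205 colon cancer cells, was measured 5 h after compound addition.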

Where [1] appears, read: Homo sapiens, COLO 205, 5 h, five hours after addition of compound.
The mark [2] stands for this setting: Homo sapiens, COLO 205, 5 h, R-isomer at C2 (corresponding to C2 S-isomer), 5 h.

Here are results for 29 molecules from patent publication US20230312587A1, “PTERIDINONE COMPOUNDS AND USES THEREOF” (Vertex Pharmaceutical Incorporated, priority 2018, published 2023).

Read-outs that look alike come from different tables or passages of the source.

Take `Cc1nc(NCc2cnn(Cc3ccc(OC(C)C)nc3)c2)nc2c1N(C)C(=O)[C@H](C)N2C` [Compound 129, (7S)-2-(((1-((6-isopropoxypyridin-3-yl)methyl)-1H-pyrazol-4-yl)methyl)amino)-4,5,7,8-tetramethyl-7,8-dihydropteridin-6(5H)-one]: under setting [1], the IC50 is 0.3 to 1 µM.

As for `C[C@H]1C(=O)Nc2cnc(N[C@H]3C[C@H](OCc4cc(F)c(F)c(F)c4)C3)nc2N1C` [Compound 256, (7S)-7,8-dimethyl-2-((trans-3-((3,4,5-trifluorobenzyl)oxy)cyclobutyl)amino)-7,8-dihydropteridin-6(5H)-one], under setting [1], the IC50 fell in the range of 0.3 to 1 µM.

As to `Cc1cc(C(=O)N2CC(Nc3nc(C)c4c(n3)N(C)[C@@H](C(C)C)C(=O)N4)C2)on1` [Compound 620, (S)-7-isopropyl-4,8-dimethyl-2-((1-(3-methylisoxazole-5-carbonyl)azetidin-3-yl)amino)-7,8-dihydropteridin-6(5H)-one], under setting [1], the IC50 is at least 5 µM.

Consider `Cc1cc(Cn2cc(CNc3nc(C)c4c(n3)N(C)[C@@H](C)C(=O)N4)cn2)cnc1C(F)(F)F` [Compound 199, (7S)-4,7,8-trimethyl-2-(((1-((5-methyl-6-(trifluoromethyl)pyridin-3-yl)methyl)-1H-pyrazol-4-yl)methyl)amino)-7,8-dihydropteridin-6(5H)-one], for which the IC50 under setting [1] was below 0.3 µM.

Take `Cc1nc(N[C@H]2C[C@H](NC(=O)Nc3ccc(Cl)nc3)C2)nc2c1NC(=O)[C@H](C)N2C` [Compound 463, 1-(6-chloropyridin-3-yl)-3-(trans-3-(((S)-4,7,8-trimethyl-6-oxo-5,6,7,8-tetrahydropteridin-2-yl)amino)cyclobutyl)urea]: under setting [1], the IC50 was at least 5 µM.

With `Cc1nc(NCc2cnn(Cc3ccc(C(F)(F)F)nc3)c2)nc2c1NC(=O)[C@H]([C@H](C)OC(C)(C)C)N2C` [Compound 742, (S)-7-((S)-1-(tert-butoxy)ethyl)-4,8-dimethyl-2-(((1-((6-(trifluoromethyl)pyridin-3-yl)methyl)-1H-pyrazol-4-yl)methyl)amino)-7,8-dihydropteridin-6(5H)-one], the IC50 under setting [1] is 1 to 5 µM.

On to `Cc1nc(N[C@H]2C[C@@H](COc3cc(F)c(F)cc3F)C2)nc2c1NC(=O)[C@H](C)N2C` [Compound 285, (7S)-4,7,8-trimethyl-2-((cis-3-((2,4,5-trifluorophenoxy)methyl)cyclobutyl)-amino)-7,8-dihydropteridin-6(5H)-one], for which the IC50 under setting [1] is below 0.3 µM.

On to `Cc1nc(N[C@H]2C[C@@H](COc3cnn(C)c3C(F)(F)F)C2)nc2c1NC(=O)[C@H](C(C)C)N2C` [Compound 575, (S)-7-isopropyl-4,8-dimethyl-2-((cis-3-(((1-methyl-5-(trifluoromethyl)-1H-pyrazol-4-yl)oxy)methyl)cyclobutyl)amino)-7,8-dihydropteridin-6(5H)-one], for which the IC50 under setting [1] was below 0.3 µM.

With `Cc1nc(N[C@H]2C[C@@H](Sc3ccc(C(F)(F)F)cc3)C2)nc2c1N(C)C(=O)[C@H](C)N2C` [Compound 322, (7S)-4,5,7,8-tetramethyl-2-((cis-3-((4-(trifluoromethyl)phenyl)thio)cyclobutyl)amino)-7,8-dihydropteridin-6(5H)-one], under setting [1], the IC50 was in the range of 0.3 to 1 µM.

As to `CC[C@@H]1C(=O)Nc2c(C)nc(NCc3cnn(Cc4ccc(C(F)(F)F)nc4)c3)nc2N1C` [Compound I-1635], under setting [2], the IC50 lay within 1 to 5 µM.

As for `Cc1nc(N[C@H]2C[C@@H](COc3ccc(C(F)(F)F)nc3)C2)nc2c1NC(=O)C1(CCOC1)N2C` (relative stereo) [Compound 697, 4′,8′-dimethyl-2′-((cis-3-(((6-(trifluoromethyl)pyridin-3-yl)oxy)methyl)cyclobutyl)amino)-4,5,5′,8′-tetrahydro-2H,6′H-spiro[furan-3,7′-pteridin]-6′-one], the IC50 under setting [1] lay in the range of 0.3 to 1 µM.

For `Cc1nc(N[C@H]2C[C@H](Oc3ccc(F)cc3F)C2)nc2c1NC(=O)[C@H](C)N2C` (relative stereo) [Compound 295, (7S)-4,7,8-trimethyl-2-((trans-3-(2,4-drifluorophenoxy)cyclobutyl)amino)-7,8-dihydropteridin-6(5H)-one], the IC50 (five hours after addition of compound) was below 0.3 µM.

Take `Cc1nc(N[C@H]2C[C@H](n3ccc(C(F)(F)F)n3)C2)nc2c1NC(=O)[C@H](C(C)C)N2C` [Compound 730, (S)-7-isopropyl-4,8-dimethyl-2-((trans-3-(3-(trifluoromethyl)-1H-pyrazol-1-yl)cyclobutyl)amino)-7,8-dihydropteridin-6(5H)-one]: the IC50 under setting [1] lay within 1 to 5 µM.

For the molecule `Cc1nc(NC2CN(Cc3ccc(C(F)(F)F)cc3)C2)nc2c1NC(=O)[C@H](C(C)C)N2C` [Compound 650, (S)-7-isopropyl-4,8-dimethyl-2-((1-(4-(trifluoromethyl)benzyl)azetidin-3-yl)amino)-7,8-dihydropteridin-6(5H)-one], under setting [1], the IC50 was below 0.3 µM.

With `Cc1nc(NC2CN(Cc3ccccc3)C2)nc2c1NC(=O)[C@H](C)N2C` [Compound 244, (7S)-2-((1-benzylazetidin-3-yl)amino)-4,7,8-trimethyl-7,8-dihydropteridin-6(5H)-one], under setting [1], the IC50 is at least 5 µM.

Take `Cc1nc(NCc2cnn(C3CCc4ccc(F)cc43)c2)nc2c1NC(=O)[C@H](C)N2C` (stereo partly drawn) [Compound 117, (7S)-2-(((1-(6-fluoro-2,3-dihydro-1H-inden-1-yl)-1H-pyrazol-4-yl)methyl)amino)-4,7,8-trimethyl-7,8-dihydropteridin-6(5H)-one]: the IC50 under setting [1] is below 0.3 µM.

In the case of `COC1(C2C(=O)Nc3c(C)nc(NCc4cnn(Cc5cc(C(F)(F)F)nn5C)c4)nc3N2C)CCC1` (centres unmarked) [Compound 670, 7-(1-methoxycyclobutyl)-4,8-dimethyl-2-(((1-((1-methyl-3-(trifluoromethyl)-1H-pyrazol-5-yl)methyl)-1H-pyrazol-4-yl)methyl)amino)-7,8-dihydropteridin-6(5H)-one], the IC50 under setting [1] was below 0.3 µM.

Turning to `Cc1nc(N[C@H]2CC[C@@H](N(C)c3ccc(C(F)(F)F)cc3)C2)nc2c1NC(=O)[C@H](C(C)C)N2C` [Compound 502, (S)-7-isopropyl-4,8-dimethyl-2-(((1S,3R)-3-(methyl(4-(trifluoromethyl)phenyl)amino)cyclopentyl)amino)-7,8-dihydropteridin-6(5H)-one], under setting [1], the IC50 was 1 to 5 µM.

In the case of `COc1cc(F)ccc1CN1CC(Nc2nc(C)c3c(n2)N(C)[C@@H](C(C)C)C(=O)N3)C1` [Compound 603, (S)-2-((1-(4-fluoro-2-methoxybenzyl)azetidin-3-yl)amino)-7-isopropyl-4,8-dimethyl-7,8-dihydropteridin-6(5H)-one], the IC50 under setting [1] lay within 0.3 to 1 µM.

`Cc1nc(N[C@H]2C[C@H](Oc3cnc(C(F)(F)F)nc3)C2)nc2c1NC(=O)[C@H](C)N2C` [Compound 333, (7S)-4,7,8-trimethyl-2-((trans-3-((2-(trifluoromethyl)pyrimidin-5-yl)oxy)cyclobutyl)amino)-7,8-dihydropteridin-6(5H)-one]: the IC50 under setting [1] is below 0.3 µM.

For the molecule `Cc1cnc(C(F)(F)F)nc1-n1cc(CNc2nc(C)c3c(n2)N(C)[C@@H](C)C(=O)N3)cn1` [Compound 161, (7S)-4,7,8-trimethyl-2-(((1-(5-methyl-2-(trifluoromethyl)pyrimidin-4-yl)-1H-pyrazol-4-yl)methyl)amino)-7,8-dihydropteridin-6(5H)-one], the IC50 under setting [1] was 0.3 to 1 µM.

Turning to `Cc1nc(N[C@H]2CCc3nn(Cc4ccc(C(F)(F)F)nc4)cc32)nc2c1NC(=O)[C@H](C)N2C` [Compound 546, (7S)-4,7,8-trimethyl-2-(((S)-2-((6-(trifluoromethyl)pyridin-3-yl)methyl)-2,4,5,6-tetrahydrocyclopenta[c]pyrazol-4-yl)amino)-7,8-dihydropteridin-6(5H)-one], the IC50 under setting [1] is at least 5 µM.

As to `COC1(C2C(=O)Nc3c(C)nc(N[C@H]4C[C@H](Oc5cc(F)c(F)c(F)c5)C4)nc3N2C)CCC1` (relative stereo) [Compound 667, 7-(1-methoxycyclobutyl)-4,8-dimethyl-2-((trans-3-(3,4,5-trifluorophenoxy)cyclobutyl)amino)-7,8-dihydropteridin-6(5H)-one], the IC50 under setting [1] is below 0.3 µM.

On to `C#CC[C@H]1C(=O)N(C)c2cnc(NCc3cnn(Cc4cc(F)c(F)c(F)c4)c3)nc2N1C` [Compound 25, (7S)-5,8-dimethyl-7-(prop-2-yn-1-yl)-2-(((1-(3,4,5-trifluorobenzyl)-1H-pyrazol-4-yl)methyl)amino)-7,8-dihydropteridin-6(5H)-one], for which, under setting [1], the IC50 was below 0.3 µM.

For `Cc1nc(NCc2cnn(-c3cccc(C(F)(F)F)c3)c2)nc2c1NC(=O)[C@H](C)N2C` [Compound 97, (7S)-4,7,8-trimethyl-2-(((1-(3-(trifluoromethyl)phenyl)-1H-pyrazol-4-yl)methyl)amino)-7,8-dihydropteridin-6(5H)-one], the IC50 under setting [1] is below 0.3 µM.

As for `Cc1nc(N[C@H]2C[C@H](Nc3cccc(C(F)(F)F)n3)C2)nc2c1NC(=O)[C@H](C(C)C)N2C` [Compound 531, (S)-7-isopropyl-4,8-dimethyl-2-((trans-3-((6-(trifluoromethyl)pyridin-2-yl)amino)cyclobutyl)amino)-7,8-dihydropteridin-6(5H)-one], the IC50 under setting [1] lay within 0.3 to 1 µM.

Turning to `Cc1nc(N[C@H]2C[C@@H](Nc3nccc(C(F)(F)F)n3)C2)nc2c1NC(=O)[C@H](C(C)C)N2C` [Compound 527, (S)-7-isopropyl-4,8-dimethyl-2-((cis-3-((4-(trifluoromethyl)pyrimidin-2-yl)amino)cyclobutyl)amino)-7,8-dihydropteridin-6(5H)-one], the IC50 under setting [1] was in the range of 0.3 to 1 µM.

Consider `CC[C@@H]1C(=O)Nc2cnc(NCc3cnn(Cc4ccc(C(F)(F)F)nc4)c3)nc2N1C(C)C` [Compound I-1646], for which the IC50 under setting [2] is at least 5 µM.

For the molecule `Cc1nc(N[C@H]2C[C@@H](Cn3nc(N)cc3C(F)(F)F)C2)nc2c1NC(=O)[C@H](C(C)C)N2C` [Compound 584, (S)-2-((cis-3-((3-amino-5-(trifluoromethyl)-1H-pyrazol-1-yl)methyl)cyclobutyl)amino)-7-isopropyl-4,8-dimethyl-7,8-dihydropteridin-6(5H)-one], under setting [1], the IC50 is at least 5 µM.
